Source: patent US11028095B2, “Spiro-lactam and bis-spiro-lactam NMDA receptor modulators and uses thereof” (Aptinyx Inc., priority 2016, dated 2021)
Where two headings read alike, the source gives them in different places.

Legend:
[1] = Microsomal stability (Rat); type: in vitro ADME; conditions: rat microsomes
Experimental: (§1) Microsomal stability of disclosed compounds was investigated. The following table indicates the percent of compound remaining after 60 minutes.

IV pharmacokinetics = type: in vivo; conditions: rat, in vivo, Sprague Dawley rats, 2 mg/kg, normal saline; for C0: read-out: C0; for Vd: read-out: Vss
Experimental: Sprague Dawley rats were dosed intravenously using a normal saline formulation containing 2 mg/kg of the compounds identified in the below table. The table below summarizes the results of the IV pharmacokinetics.

[2] = test system: positive (hedonic) 50-kHz ultrasonic vocalizations (USVs); assay: Positive Emotional Learning (PEL) test; type: in vivo; conditions: rat, PO, one hour after administration
Experimental: Experiments were conducted as described in Burgdorf et al., “The effect of selective breeding for differential rates of 50-kHz ultrasonic vocalizations on emotional behavior in rats,” Devel. […] Rat 50-kHz ultrasonic vocalization (hedonic USVs) is a validated model for the study of positive affective state and is best elicited by rough-and-tumble play.
The PEL assay measures the acquisition of positive (hedonic) 50-kHz ultrasonic vocalizations (USVs) to a social stimulus, heterospecific rough and tumble play stimulation. Heterospecific rough-and-tumble play stimulation was administered by the experimenter's right hand. One hour after administration of test compound or vehicle negative control (0.5% sodium carboxymethyl cellulose in 0.9% sterile saline vehicle), animals received 3 min of heterospecific rough-and-tumble play that consisted of alternating 15 sec blocks of heterospecific play and 15 sec of no-stimulation. […] Frequency modulated 50-kHz USVs that occurred during each of the no-stimulation periods were quantified to measure PEL. Animals were not habituated to play stimulation before testing. Positive emotional learning was measured during the conditioned stimulus (CS) trials preceding the tickle unconditioned stimulus (UCS) trials. Animals received 15 second trials consisting of 6 CS and 6 UCS trials each (3 min total).

[3] = Oral pharmacokinetics (plasma, brain, CSF); type: in vivo; conditions: Sprague Dawley rats, per os, 10 mg/kg; for AUC(0-t) / bioavailability / Tmax / Cmax: rat, plasma, po; for Tmax: normal saline, read-out: Tmax; for Cmax: read-out: Cmax
Experimental: In another experiment, Sprague Dawley rats were dosed per os using a normal saline formulation containing 10 mg/kg of the compounds identified in the table below. Plasma, brain, and CSF samples were analyzed at various time points over a 24 hour period. The table below summarizes the results of the oral pharmacokinetics.

[4] = molecular target: T1, NMDAR2D expressing HEK cell membranes (Homo sapiens, UniProt O15399+Q05586); assay: NMDAR agonist assay, [3H]MK-801 binding, NMDAR2D; type: biochemical; conditions: for EC50: [3H]MK-801 binding; for Emax: read-out: NMDAR2D: % maximal [3H]MK-801 binding relative to 1 mM glycine
T1 construct: expressed in transfected cells; host or cells: HEK cells (membrane extract)
Experimental: (§2) (nonequilibrium conditions).
(§3) The baseline value was determined from the best fit curve of the DPM values modeled using the GraphPad program and the log(agonist) vs. response(three parameters) algorithm was then subtracted from all points in the dataset.

[5] = molecular target: T2, NMDAR2A expressing HEK cell membranes (Homo sapiens, UniProt Q12879); assay: NMDAR agonist assay, [3H]MK-801 binding, NMDAR2A; type: biochemical; conditions: 50 μM glutamate
T2 construct: expressed in transfected cells; host or cells: HEK cells (membrane extract)
Experimental: as §2, §3

[6] = molecular target: T3, NMDAR2A expressing HEK cell membranes (Homo sapiens, UniProt Q05586+Q12879); assay: NMDAR agonist assay, [3H]MK-801 binding, NMDAR2A; type: biochemical; conditions: for EC50: [3H]MK-801 binding
T3 construct: expressed in transfected cells; host or cells: HEK cells (membrane extract)
Experimental: as §2, §3

Plasma stability (Rat) = type: in vitro ADME
Experimental: (§4) Plasma stability of disclosed compounds was investigated. The following table indicates the percent of compound remaining after 60 minutes.

[7] = Microsomal stability (Human); type: in vitro ADME; conditions: human microsomes
Experimental: as §1

[8] = molecular target: T4, NMDAR2B expressing HEK cell membranes (Homo sapiens, UniProt Q05586+Q13224); assay: NMDAR agonist assay, [3H]MK-801 binding, NMDAR2B; type: biochemical; conditions: for EC50: [3H]MK-801 binding; for Emax: relative to 1 mM glycine
T4 construct: expressed in transfected cells; host or cells: HEK cells (membrane extract)
Experimental: as §2, §3

[9] = molecular target: T5, NMDAR2B expressing HEK cell membranes (Homo sapiens, UniProt Q13224); assay: NMDAR agonist assay, [3H]MK-801 binding, NMDAR2B; type: biochemical; conditions: 50 μM glutamate; relative to 1 mM glycine
T5 construct: expressed in transfected cells; host or cells: HEK cells (membrane extract)
Experimental: as §2, §3

Plasma stability (Human) = type: in vitro ADME
Experimental: as §4

[10] = molecular target: T6, NMDAR2C expressing HEK cell membranes (Homo sapiens, UniProt Q05586+Q14957); assay: NMDAR agonist assay, [3H]MK-801 binding, NMDAR2C; type: biochemical; conditions: for EC50: [3H]MK-801 binding
T6 construct: expressed in transfected cells; host or cells: HEK cells (membrane extract)
Experimental: as §2, §3

[11] = NMDAR2A: log EC50, 50 μM glutamate
[12] = NMDAR2B: log EC50, 50 μM glutamate
[13] = read-out: NMDAR2C: % maximal [3H]MK-801 binding relative to 1 mM glycine
[14] = 50 μM glutamate, read-out: NMDAR2D: log EC50 (converted)
[15] = 50 μM glutamate, relative to 1 mM glycine
[16] = 50 μM glutamate, read-out: NMDAR2B log EC50 (converted)
[17] = 50 μM glutamate, read-out: NMDAR2C: log EC50 (converted)
[18] = 50 μM glutamate, relative to 1 mM glycine, read-out: NMDAR2C A: % maximal [3H]MK-801 binding relative to 1 mM glycine

T2 sequence (Q12879 23-1464, other chains not shown): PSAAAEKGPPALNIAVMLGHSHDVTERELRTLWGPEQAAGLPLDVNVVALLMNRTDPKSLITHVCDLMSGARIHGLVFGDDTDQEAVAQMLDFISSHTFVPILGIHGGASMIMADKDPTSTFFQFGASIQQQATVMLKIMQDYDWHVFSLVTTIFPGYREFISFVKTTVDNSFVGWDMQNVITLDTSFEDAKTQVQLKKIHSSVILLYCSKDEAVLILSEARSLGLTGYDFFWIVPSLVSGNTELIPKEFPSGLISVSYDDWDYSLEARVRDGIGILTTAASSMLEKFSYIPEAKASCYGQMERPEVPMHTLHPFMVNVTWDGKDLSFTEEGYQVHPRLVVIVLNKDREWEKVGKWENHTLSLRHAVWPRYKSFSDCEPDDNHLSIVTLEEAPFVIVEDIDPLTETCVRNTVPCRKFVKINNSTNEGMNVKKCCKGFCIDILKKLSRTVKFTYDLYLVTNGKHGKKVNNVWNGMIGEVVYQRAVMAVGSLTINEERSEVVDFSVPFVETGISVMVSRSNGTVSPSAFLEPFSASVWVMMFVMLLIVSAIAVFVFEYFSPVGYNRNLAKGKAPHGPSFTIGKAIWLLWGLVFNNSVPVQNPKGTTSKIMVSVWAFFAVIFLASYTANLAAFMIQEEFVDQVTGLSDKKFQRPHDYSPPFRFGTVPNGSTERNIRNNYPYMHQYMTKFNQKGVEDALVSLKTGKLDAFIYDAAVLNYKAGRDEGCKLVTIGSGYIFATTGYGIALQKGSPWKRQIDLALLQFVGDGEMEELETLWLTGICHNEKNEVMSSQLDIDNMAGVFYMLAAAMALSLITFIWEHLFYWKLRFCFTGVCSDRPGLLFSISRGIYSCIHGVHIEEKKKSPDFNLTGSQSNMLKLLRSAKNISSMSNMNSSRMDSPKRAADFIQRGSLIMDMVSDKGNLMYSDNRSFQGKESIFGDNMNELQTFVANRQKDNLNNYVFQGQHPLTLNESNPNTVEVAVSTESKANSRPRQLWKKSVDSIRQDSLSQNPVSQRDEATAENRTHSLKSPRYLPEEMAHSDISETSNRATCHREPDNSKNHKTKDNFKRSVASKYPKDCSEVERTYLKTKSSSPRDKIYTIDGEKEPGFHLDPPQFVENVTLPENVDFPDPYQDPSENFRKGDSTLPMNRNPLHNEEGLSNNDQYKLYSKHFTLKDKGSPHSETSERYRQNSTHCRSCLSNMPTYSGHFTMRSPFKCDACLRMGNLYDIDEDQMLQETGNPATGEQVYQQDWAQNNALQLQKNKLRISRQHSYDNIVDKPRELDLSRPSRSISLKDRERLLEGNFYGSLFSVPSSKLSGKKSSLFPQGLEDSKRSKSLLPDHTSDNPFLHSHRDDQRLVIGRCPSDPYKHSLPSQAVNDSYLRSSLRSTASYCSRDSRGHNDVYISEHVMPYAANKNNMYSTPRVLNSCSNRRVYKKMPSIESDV
T3 sequence (Q12879 23-1464, other chains not shown): as above
T4 sequence (Q13224 27-1484, other chains not shown): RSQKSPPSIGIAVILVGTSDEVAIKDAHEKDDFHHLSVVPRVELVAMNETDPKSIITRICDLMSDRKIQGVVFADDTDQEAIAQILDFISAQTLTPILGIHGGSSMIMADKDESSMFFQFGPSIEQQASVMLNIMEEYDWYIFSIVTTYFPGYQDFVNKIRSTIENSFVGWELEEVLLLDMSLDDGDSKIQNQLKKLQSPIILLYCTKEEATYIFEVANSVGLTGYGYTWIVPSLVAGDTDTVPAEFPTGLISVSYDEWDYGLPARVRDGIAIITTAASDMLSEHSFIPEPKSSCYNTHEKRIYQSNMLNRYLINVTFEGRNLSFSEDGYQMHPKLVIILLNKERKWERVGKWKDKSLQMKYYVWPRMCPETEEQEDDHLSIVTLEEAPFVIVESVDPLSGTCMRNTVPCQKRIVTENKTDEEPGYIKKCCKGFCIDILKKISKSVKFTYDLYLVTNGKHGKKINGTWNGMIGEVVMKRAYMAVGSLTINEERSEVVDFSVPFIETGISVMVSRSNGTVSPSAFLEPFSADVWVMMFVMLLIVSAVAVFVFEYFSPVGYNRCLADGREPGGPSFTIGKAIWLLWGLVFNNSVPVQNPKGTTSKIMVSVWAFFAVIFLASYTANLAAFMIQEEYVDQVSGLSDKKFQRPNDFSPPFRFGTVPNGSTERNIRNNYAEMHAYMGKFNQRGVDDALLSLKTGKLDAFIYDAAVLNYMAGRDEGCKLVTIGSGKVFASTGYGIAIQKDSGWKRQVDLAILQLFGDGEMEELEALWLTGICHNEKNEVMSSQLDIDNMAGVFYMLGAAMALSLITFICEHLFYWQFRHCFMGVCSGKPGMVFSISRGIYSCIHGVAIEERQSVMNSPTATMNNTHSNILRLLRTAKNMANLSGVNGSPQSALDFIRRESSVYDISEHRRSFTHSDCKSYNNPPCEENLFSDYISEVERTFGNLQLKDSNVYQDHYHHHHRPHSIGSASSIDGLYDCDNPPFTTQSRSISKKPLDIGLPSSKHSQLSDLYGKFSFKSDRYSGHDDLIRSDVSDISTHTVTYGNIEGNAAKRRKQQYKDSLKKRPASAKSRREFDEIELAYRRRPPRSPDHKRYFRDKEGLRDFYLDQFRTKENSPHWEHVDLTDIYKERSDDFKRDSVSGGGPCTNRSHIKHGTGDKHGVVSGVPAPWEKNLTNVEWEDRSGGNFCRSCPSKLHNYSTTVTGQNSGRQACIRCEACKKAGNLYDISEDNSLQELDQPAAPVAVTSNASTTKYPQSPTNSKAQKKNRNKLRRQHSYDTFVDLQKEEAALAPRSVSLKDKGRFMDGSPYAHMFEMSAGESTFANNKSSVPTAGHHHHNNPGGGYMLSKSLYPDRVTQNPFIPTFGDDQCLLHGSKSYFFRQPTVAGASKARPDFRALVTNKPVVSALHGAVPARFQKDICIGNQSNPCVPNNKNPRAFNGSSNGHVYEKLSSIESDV

Row | Structure (SMILES) | Microsomal (Rat): percent of compound remaining after 60 minutes [1] | AUC(0-t) (IV pharmacokinetics) | clearance (IV pharmacokinetics) | half-life (IV pharmacokinetics) | C0 (IV pharmacokinetics) | Vd (IV pharmacokinetics) | Max Effect (mean number of 50 kHz USVs per 15 seconds) ([2]; dose 0.1 mg/kg) | CSF Cmax [3] | Brain Cmax [3] | AUC(0-t) [3] | bioavailability [3] | Tmax [3] | Cmax [3] | Emax [4] | NMDAR2A: % maximal [3H]MK-801 binding relative to 1 mM glycine [5] | EC50 [6, 11] | Plasma (Rat): percent of compound remaining after 60 minutes (Plasma stability (Rat)) | Microsomal (Human): percent of compound remaining after 60 minutes [7] | EC50 [8, 12] | Plasma (Human): percent of compound remaining after 60 minutes (Plasma stability (Human)) | further results
1 | O=C1NCC12CCC1(CNC1=O)N2 (single isomer, unassigned) [AJ, 2,5,8-triazadispiro[3.1.36.24]undecane-1,7-dione] | 100% | 2090 ng·h/mL | 15.4 mL/min/kg | 26.4 min | 4860 ng/mL | 0.47 L/kg | ** (**: 11-16.9) | 71.9 ng/mL | 0 ng/mL | 2060 ng·h/mL | 20% | 30 min | 1160 ng/mL | < 100% | + (<100%=+) | < 1 nM | 68% | 100% | < 1 nM | 90% | EC50 ([4]; NMDAR2D: log EC50, 50 μM glutamate): < 1 nM; NMDAR2B: % maximal [3H]MK-801 binding relative to 1 mM glycine [9]: + (<100%=+); EC50 ([10]; NMDAR2C: log EC50, 50 μM glutamate): < 1 nM; Emax [10, 13]: < 100%
2 | CC(C)CN1[C@]2(CC[C@]13CNC3=O)CNC2=O [Compound AF, 5-isobutyl-2,5,8-triazadispiro[3.1.36.24]undecane-1,7-dione] | 87% | 6450 ng·h/mL | 5.2 mL/min/kg | 299 min | 3900 ng/mL | 0.59 L/kg | – | 2781 ng/mL | 1313.8 ng/mL | 16100 ng·h/mL | 82% | 25.2 min | 7250 ng/mL | < 100% | – | < 1 nM | 90% | 92% | < 1 nM | 99% | Max Effect (mean number of 50 kHz USVs per 15 seconds) ([2]; dose 0.001-1 mg/kg): ** (**: 11-16.9); Emax ([6]; read-out: NMDAR2A: % maximal [3H]MK-801 binding relative to 1 mM glycine, 50 μM glutamate, relative to 1 mM glycine): < 100%; Emax ([8]; read-out: NMDAR2B: % maximal [3H]MK-801 binding relative to 1 mM glycine, 50 μM glutamate): < 100%; Emax [10, 13]: > 100%
3 | CC(C)C(=O)N1C2(CCC13CNC3=O)CNC2=O (single isomer, unassigned) [AH, 5-isobutyryl-2,5,8-triazadispiro[3.1.36.24]undecane-1,7-dione] | 100% | – | – | – | – | – | ** (**: 11-16.9) | 123 ng/mL | 45.8 ng/mL | – | – | – | – | – | + (<100%=+) | – | 100% | 100% | – | 95% | AUC(0-t) (IV pharmacokinetics; Sprague Dawley, iv): 3020 ng·h/mL; clearance (IV pharmacokinetics; Sprague Dawley, iv): 10.9 mL/min/kg; half-life (IV pharmacokinetics; Sprague Dawley, iv): 221 min; C0 (IV pharmacokinetics; Sprague Dawley, iv): 3870 ng/mL; Vd (IV pharmacokinetics; Sprague Dawley, iv): 1.1 L/kg; AUC(0-t) ([3]; Sprague Dawley): 2570 ng·h/mL; bioavailability ([3]; Sprague Dawley): 17%; Tmax ([3]; Sprague Dawley): 100 min; Cmax ([3]; Sprague Dawley): 655 ng/mL; EC50 [4, 14]: < 1 nM; Emax [4, 15]: < 100%; EC50 ([5]; [3H]MK-801 binding, read-out: NMDAR2A: log EC50 (converted)): < 1 nM; EC50 [8, 16]: < 1 nM; NMDAR2B: % maximal [3H]MK-801 binding relative to 1 mM glycine [9]: + (<100%=+); EC50 [10, 17]: < 1 nM; Emax [10, 18]: < 100%
4 | C[C@@H](O)[C@@H](C(N)=O)N1CC2(CCC3(CN([C@H](C(N)=O)[C@@H](C)O)C3=O)N2C(=O)OC(C)(C)C)C1=O (stereo partly drawn) [BY, tert-butyl 2,8-bis((2S,3R)-1-amino-3-hydroxy-1-oxobutan-2-yl)-1,7-dioxo-2,5,8-triazadispiro[3.1.36.24]undecane-5-carboxylate] | 81% | – | – | – | – | – | ** (**: 11-16.9) | 0 ng/mL | 0 ng/mL | – | – | – | – | – | – | – | 82% | 100% | – | 81% | AUC(0-t) (IV pharmacokinetics; Sprague Dawley, iv): 5960 ng·h/mL; clearance (IV pharmacokinetics; Sprague Dawley, iv): 5.6 mL/min/kg; half-life (IV pharmacokinetics; Sprague Dawley, iv): 38.4 min; C0 (IV pharmacokinetics; Sprague Dawley, iv): 10200 ng/mL; Vd (IV pharmacokinetics; Sprague Dawley, iv): 0.15 L/kg; AUC(0-t) ([3]; Sprague Dawley): 486 ng·h/mL; bioavailability ([3]; Sprague Dawley): 2%; Tmax ([3]; Sprague Dawley): 49.8 min; Cmax ([3]; Sprague Dawley): 156 ng/mL; EC50 [4, 14]: > 100 nM; Emax [4, 15]: 0%; EC50 ([6]; 50 μM glutamate, read-out: NMDAR2A: log EC50 (converted)): > 100 nM; EC50 [8, 16]: < 1 nM; Emax ([8]; 50 μM glutamate, read-out: NMDAR2B: % maximal [3H]MK-801 binding relative to 1 mM glycine): > 100%; EC50 [10, 17]: < 1 nM; Emax [10, 18]: < 100%
